Experimental data published in patent publication US8987217B2, “Modified saponins for the treatment of fungal infections” (The General Hospital Corporation, priority 2010, dated 2015).
Values after ≈ are worked out from the molar mass of the structure shown. “Also recorded” adds a separate entry of the source. Like-named read-outs stand apart in the source and are kept apart here.

Tests used:
[1] = system: C. albicans strain DAY185; test: in vitro antifungal activity (MIC) in the co-inoculation assay, turbidity read visually; format: cell-based; details: for MIC in vitro: co-inoculation assay, two-fold serial dilutions, C. albicans DAY185; for in vitro growth of C. albicans: screen / dose response
Method: (§1) The procedure for the co-inoculation antifungal compound screen were conducted as previously described (Okoli et al., PLoS ONE, 4:e7025 (2009); Tampakakis et al., Nat Protocols, 3:1925-1931 (2008)), using the C. albicans strain DAY185 (Davis et al., Infect Immun, 68:5953-5959 (2000)) and the C. elegans glp-4;sek-1 double mutant.
The determination of the lowest concentration of the selected compounds showing in vitro antifungal activity was accomplished by following the steps detailed in the co-inoculation assay, using two-fold serial dilutions of the test compounds.

C. albicans = test: C. elegans-C. albicans co-inoculation assay, nematode survival; format: in vivo; details: for maximum nematode survival / promoting C. elegans survival compared with amphotericin B: dose response; for maximum nematode survival: C. albicans-infected C. elegans; for EC50 in vivo: dose that resulted in 50% survival of C. albicans-infected nematodes; for promoting C. elegans survival compared with amphotericin B: FIG. 2A
Method: as §1
(§2) This assay allows simultaneous assessment of a compound's potential toxicity and the ability to promote the survival of the nematode in the presence of C. albicans, including modes of action not traditionally considered in antifungal assays such as impeding a fungal virulence factor or promoting host immune response. We performed a screen of 2,560 natural products representing a fraction of the Analyiticon Discovery compound collection (ac-discovery.com) housed at the Broad Institute of Harvard and MIT (Cambridge, Mass.). […] These natural products identified in the primary screen were retested and confirmed (FIG. 1; Table 1). […] Moreover, although the antifungal effects of some of these saponins have been reported (Sata et al., Biosci Biotechnol Biochem, 62:1904-1911 (1998); Ohtani et al., Phytochem, 33:83-86 (1993)), their efficacy against Candida spp. has not been studied.
After confirmation of these hits, dose response experiments were conducted to determine the concentration that provided maximum nematode survival. The compounds conferred a range of nematode survival from 27% (compound A6) to 93% (compounds A2, A7, A24, and A25), however, with the exception of A6, all compounds conferred a nematode survival over 65% (FIG. 1).

C. elegans = test: toxicity to the nematode in dose response experiments; details: for toxicity to the nematode: dose response experiments, higher concentrations
Source text: as §2
Representatives of the saponins family are able to disrupt cellular membranes and the lytic activity on erythrocytes has been used as an assay for some saponins Francis et al., British Journal of Nutrition, 88:587-605 (2002)). This property is derived from the affinity of some saponins for binding cholesterol forming insoluble pores composed of the sterol and saponins (Bangham et al., Nature, 196:952-953(1962); Glauert et al., Nature, 196:953-955 (1962)). […] The dose-response experiments previously used to determine the EC50 and approximate the MIC can also indicate if the saponins maybe toxic to C. elegans and potentially to mammalian cells.

C. albicans strains = test: MIC by standard CLSI microdilution protocol M27-A; format: cell-based
Method: Using the standard Clinical and Laboratory Standards Institute (CLSI) procedure, the in vitro MIC of these two compounds was determined on the following C. albicans strains: DAY185 (the standard strain used throughout the screen), two fluconazole-resistant strains of C. albicans, and an echinocandin-resistant strain of C. albicans (Table 2).
The minimal inhibitory concentration (MIC) was determined for strains DAY185, 98-145, 95-120 (White et al., Antimicrob Agents Chemother, 46:1704-1713 (2002)), and A15-10 (Garcia-Effron et al., Antimicrob Agents Chemother, 53:112-122 (2009)) spectrophotometrically using RPMI 1640 media (Mediatech, Inc.) following the standard CLSI microdilution protocol M27-A (National Committee for Clinical Laboratory Standards, Reference method for broth dilution susceptibility testing of yeasts. Tentative standard M27-A, Villanova, Pa. (1995)). Biofilm assays using identified compounds were conducted as previously described (Richard et al., Eukaryot Cell, 4:1493-1502 (2005)). The biofilm dry mass was determined by drying the silicone squares in a chemical hood, and weighing the resulting biofilm mass subtracting the previously weighed mass of the silicone square. Biofilm pictures were captured using a confocal laser microscope (TCS NT, Leica Microsystems). Cells were grown at 30° C., exposed to PS for 30 min, and then washed with PBS.

C. albicans isolates = test: interaction between A16 and fluconazole (MIC); format: cell-based
Source text: Since compound A16 was able to facilitate uptake of PS compounds, we investigated their ability to increase uptake to the commonly used antifungal agent fluconazole. As indicated above, fluconazole and saponins have different target sites, although they both function by altering the fungal cell membrane. […] One of the molecular mechanisms responsible for increased resistance to fluconazole for isolate 98-145 is a homozygous V437I point mutation in the ERG11 gene (White et al., Antimicrob Agents Chemother, 46:1704-1713 (2002)).

C. albicans DAY185 = details: at the concentrations used, yeast cells; cited from earlier work

## C[C@@H]1O[C@@H](O[C@H]2[C@H](O[C@H]3[C@H](O[C@H]4[C@H](O)[C@@H](O[C@@H]5O[C@H](CO)[C@@H](O)[C@H](O)[C@H]5O)[C@H](O[C@H]5CC[C@@]6(C)C(CC[C@]7(C)C6CC[C@]68OCC9(CCC(C)(C)CC96)[C@H](O)C[C@]87C)C5(C)C)O[C@@H]4C(=O)O)O[C@H](CO)[C@H](O)[C@@H]3O)O[C@@H](C)[C@H](O)[C@H]2O)[C@H](O)[C@H](O)[C@H]1O (some centres unmarked) [A2, Sakurasosaponin]
[1]
  MIC in vitro: 27.5 µg/mL (≈ 22 µM)
  in vitro growth of C. albicans: completely inhibited
C. albicans
  maximum nematode survival: 93%
  EC50 in vivo: 55.1 µg/mL (≈ 44 µM)

## CC1(C)CC[C@]2(C(=O)O)CC[C@]3(C)C(=CCC4[C@@]5(C)CC[C@H](OC6O[C@H](CO)[C@@H](O)[C@H](O[C@@H]7O[C@H](CO)[C@@H](O)[C@H](O)[C@H]7O)[C@H]6O)C(C)(C)C5CC[C@]43C)[C@@H]2C1 (some centres unmarked) [A6, Arvensoside B]
C. albicans
  maximum nematode survival: 27%

## C/C=C(/C)C(=O)O[C@H]1[C@H](OC(=O)/C(C)=C\C)[C@]2(CO)[C@H](O)C[C@]3(C)C(=CCC4[C@@]5(C)CC[C@H](OC6OC(C(=O)O)C(O)C(OC7OC(C)C(O)C(OC8OC(CO)C(O)C(O)C8O)C7O)C6O)C(C)(C)C5CC[C@]43C)[C@@H]2CC1(C)C (some centres unmarked) [A7]
[1]
  MIC in vitro: 3.1 µg/mL (≈ 2.72 µM)
  in vitro growth of C. albicans: completely inhibited
C. albicans
  maximum nematode survival: 93%
  promoting C. elegans survival compared with amphotericin B: as effective as amphotericin B
  EC50 in vivo: 3.1 µg/mL (≈ 2.72 µM)
C. elegans
  toxicity to the nematode: decrease in nematode survival; also recorded: maybe toxic to the nematode

## CC1CC[C@@]2(OC1)O[C@H]1CC3C4C[C@@H](O)C5C[C@@H](O[C@@H]6O[C@H](CO)[C@H](O[C@@H]7O[C@H](CO)[C@@H](O)[C@H](O[C@@H]8OC[C@@H](O)[C@H](O)[C@H]8O)[C@H]7O[C@@H]7O[C@H](CO)[C@@H](O)[C@H](O)[C@H]7O)[C@H](O)[C@H]6O)CC[C@]5(C)C4CC[C@]3(C)[C@H]1[C@@H]2C (some centres unmarked) [A8]
[1]
  MIC in vitro: 5.8 µg/mL (≈ 5.52 µM)
C. albicans
  EC50 in vivo: 23.1 µg/mL (≈ 22 µM)

## CC1CC[C@@]2(OC1)O[C@H]1CC3C4CC=C5C[C@@H](O[C@@H]6O[C@H](CO)[C@@H](O[C@@H]7O[C@@H](C)[C@H](O)[C@@H](O)[C@H]7O)[C@H](O)[C@H]6O[C@@H]6O[C@@H](C)[C@H](O)[C@@H](O)[C@H]6O)CC[C@]5(C)C4CC[C@]3(C)[C@H]1[C@@H]2C (some centres unmarked) [A11]
[1]
  MIC in vitro: 38.9 µg/mL (≈ 44.8 µM)
C. albicans
  EC50 in vivo: 38.9 µg/mL (≈ 44.8 µM)

## CC1CC[C@@]2(OC1)O[C@H]1CC3C4CC=C5C[C@@H](O[C@@H]6O[C@H](CO)[C@@H](O[C@@H]7O[C@@H](C)[C@H](O)[C@@H](O)[C@H]7O[C@@H]7O[C@@H](C)[C@H](O)[C@@H](O)[C@H]7O)[C@H](O)[C@H]6O)CC[C@]5(C)C4CC[C@]3(C)[C@H]1[C@@H]2C (some centres unmarked) [A20]
[1]
  MIC in vitro: 4.8 µg/mL (≈ 5.52 µM)
C. albicans
  promoting C. elegans survival compared with amphotericin B: as effective as amphotericin B
  EC50 in vivo: 4.8 µg/mL (≈ 5.52 µM)

## CC1CC[C@@]2(OC1)O[C@H]1CC3C4C[C@@H](O)C5C[C@@H](O[C@@H]6O[C@H](CO)[C@H](O[C@@H]7O[C@H](CO)[C@@H](O)[C@H](O[C@@H]8OC[C@@H](O[C@@H]9O[C@H](CO)[C@@H](O)[C@H](O)[C@H]9O)[C@H](O)[C@H]8O)[C@H]7O[C@@H]7O[C@H](CO)[C@@H](O)[C@H](O)[C@H]7O)[C@H](O)[C@H]6O)CC[C@]5(C)C4CC[C@]3(C)[C@H]1[C@@H]2C (some centres unmarked) [A24]
[1]
  MIC in vitro: 13.3 µg/mL (≈ 11 µM)
C. albicans
  maximum nematode survival: 93%
  EC50 in vivo: 13.3 µg/mL (≈ 11 µM)
C. elegans
  toxicity to the nematode: decrease in nematode survival
C. elegans; in vivo
  concentrations showing evidence of toxicity to the worms: > 27000 ng/mL

## C/C=C(/C)C(=O)O[C@H]1CC(C)(C)C[C@H]2C3=CCC4[C@@]5(C)CC[C@H](O[C@@H]6O[C@H](C(=O)O)[C@@H](O[C@@H]7O[C@H](CO)[C@H](O)[C@H](O)[C@H]7O[C@@H]7O[C@H](CO)[C@@H](O)[C@H](O)[C@H]7O)[C@H](O)[C@H]6OC6O[C@@H](C)[C@H](O)[C@@H](O)[C@H]6O)C(C)(C)C5CC[C@@]4(C)[C@]3(C)[C@@H](OC(C)=O)[C@@H](O)[C@@]12COC(C)=O (some centres unmarked) [A25]
[1]
  MIC in vitro: 28.7 µg/mL (≈ 22 µM)
  in vitro growth of C. albicans: completely inhibited
C. albicans
  maximum nematode survival: 93%
  EC50 in vivo: 28.7 µg/mL (≈ 22 µM)

## C[C@@H]1[C@H](O)[C@@H](C)/C=C/C=C/C=C/C=C/C=C/C=C/C=C/[C@H](O[C@@H]2O[C@H](C)[C@@H](O)[C@H](N)[C@@H]2O)C[C@@H]2O[C@](O)(C[C@@H](O)C[C@@H](O)[C@H](O)CC[C@@H](O)C[C@@H](O)CC(=O)O[C@H]1C)C[C@H](O)[C@H]2C(=O)O [Amphotericin B]
[1]
  MIC in vitro: 1.0 µg/mL (≈ 1.08 µM)
C. albicans
  maximum nematode survival: 93%
  EC50 in vivo: 2.0 µg/mL (≈ 2.16 µM)
C. albicans strains; C. albicans DAY185
  MIC: 2 µg/mL (≈ 2.16 µM)
C. albicans strains; echinocandin-resistant strain A15
  MIC: 2 µg/mL (≈ 2.16 µM)
C. albicans strains; fluconazole-resistant strain 95-120
  MIC: 2 µg/mL (≈ 2.16 µM)
C. albicans strains; fluconazole-resistant strain 98-145
  MIC: 2 µg/mL (≈ 2.16 µM)

## CC[C@H](C)C[C@H](C)CCCCCCCCC(=O)N[C@H]1C[C@@H](O)[C@@H](NCCN)NC(=O)[C@@H]2[C@@H](O)CCN2C(=O)[C@H]([C@H](O)CCN)NC(=O)[C@H]([C@H](O)[C@@H](O)c2ccc(O)cc2)NC(=O)[C@@H]2C[C@@H](O)CN2C(=O)[C@H]([C@@H](C)O)NC1=O [Caspofungin]
C. albicans strains; Candida albicans, C. albicans DAY185
  MIC: 2 µg/mL (≈ 1.83 µM)
C. albicans strains; Candida albicans, echinocandin-resistant strain A15
  MIC: 8 µg/mL (≈ 7.32 µM)
C. albicans strains; Candida albicans, fluconazole-resistant strain 95-120
  MIC: 1 µg/mL (≈ 0.915 µM)
C. albicans strains; Candida albicans, fluconazole-resistant strain 98-145
  MIC: 1 µg/mL (≈ 0.915 µM)

## OC(Cn1cncn1)(Cn1cncn1)c1ccc(F)cc1F [Fluconazole]
C. albicans strains; Candida albicans, C. albicans DAY185, read-out: MIC
  MIC: 2 µg/mL (≈ 6.53 µM)
C. albicans strains; Candida albicans, echinocandin-resistant strain A15, read-out: MIC
  MIC: 2 µg/mL (≈ 6.53 µM)
C. albicans strains; Candida albicans, fluconazole-resistant strain 95-120, read-out: MIC
  MIC: 32 µg/mL (≈ 104 µM)
C. albicans strains; Candida albicans, fluconazole-resistant strain 98-145, read-out: MIC
  MIC: > 128 µg/mL
C. albicans isolates; Candida albicans, C. albicans isolate DAY185, read-out: MIC of fluconazole alone
  MIC: 2 µg/mL
C. albicans isolates; DAY185, subinhibitory A16 (4 μg/mL)
  MIC of fluconazole in combination with A16: 1 µg/mL
C. albicans isolates; two C. albicans isolates with increased resistance to fluconazole
  sensitivity to fluconazole treatment in the presence of A16: no increase in sensitivity

## O=C1OC2(c3cc(I)c(O)c(I)c3Oc3c2cc(I)c(O)c3I)c2c(Cl)c(Cl)c(Cl)c(Cl)c21 [RB, Rose Bengal]
C. albicans DAY185
  PDI effect of photosensitizer alone: no statistically significant PDI effect

## C=Cc1c(C)c2cc3nc(c(CC(=O)O)c4[nH]c(cc5nc(cc1[nH]2)C(C)=C5CC)c(C)c4C(=O)O)[C@@H](CCC(=O)O)[C@@H]3C [ce6, chlorin(e6)]
C. albicans DAY185
  PDI effect of photosensitizer alone: no statistically significant PDI effect
